Drawing on ChEMBL document CHEMBL1177692 (Bioorg Med Chem, 2010), this text covers Ki for three compounds.

The structures appear in SMILES notation.

The target of the assay is Carbonic anhydrase 9 (Homo sapiens, UniProt Q16790). The experiment in a line: Inhibition of human recombinant carbonic anhydrase 9 catalytic domain preincubated for 15 mins by CO2 hydration method.
Turning to `COc1ccc2c(CC(=O)Nc3ccc(S(N)(=O)=O)cc3)cc(=O)oc2c1`, the Ki worked out at 87 nM.
As for `COc1ccc2c(CC(=O)Nc3cccc(S(N)(=O)=O)c3)cc(=O)oc2c1`, the Ki is 59 nM.
Consider `COc1ccc2c(CC(=O)Nc3cc(C(F)(F)F)c(S(N)(=O)=O)cc3S(N)(=O)=O)cc(=O)oc2c1`, for which the Ki was 14 nM.

In general, Ki refers to the equilibrium dissociation constant of an inhibitor or competing ligand from its target.
